In US4560758A, “Process for preparing pyrrolo[1,2-a]imidazoles and imidazo[1,2-a]pyridines” (Pennwalt Corporation, priority 1984, dated 1985):
Where a name gives a salt, the structure may show the parent alone.

Each compound was assayed on murine marcophage cells (assay: Chemotaxis assay (migration of macrophages toward complement-derived chemoattractant)). Details: 10^-5 m.
Format: cell-based
Method: In this assay, done according to the methods of R. Synderman et al., Infection & Immunity, 11, p. 488-492 (1975) and M. S. Meltzer et al., J. Natl. Cancer Inst., 54, p. 795-799 (1975), the ability of a drug substance to influence the movement of cells responding to a stimulus induced by some foreign substance or injury is determined. This is vitro assay utilizes a chemoattractant, derived from a component of the immunological system known as complement, to induce murine marcophage cells to migrate toward it. The effect of a drug substance on such movements can be measured by counting the cells. […] For example, the compound of Example 15 stimulates migration by 35.6% at 10^-8 molar concentration and is thus immunoenhancing.

Compound | Percent Inhibition (-) or Enhancement (+) of migration
COc1ccc(CSC2CCN3CC(c4ccccc4)N=C23)cc1 (stereo not drawn) [Example 3, 2,5,6,7-Tetrahydro-2-phenyl-7-p-methoxybenzylthio-3H-pyrrolo[1,2-a]imidazole hydrochloride] | -94.9%
CSC1CCN2CC(c3ccccc3)N=C12 (stereo not drawn) [Example 1, 2,5,6,7-Tetrahydro-2-phenyl-7-methylthio-3H-pyrrolo[1,2-a]imidazole hydrochloride] | -25.4%
COc1ccc(CSC2CCCN3CC(c4ccccc4)N=C23)cc1 (stereo not drawn) [Example 15, 2,3,5,6,7,8-Hexahydro-2-phenyl-8-p-methoxybenzylthioimidazo[1,2-a]pyridinefumarate (1:1) salt] | +2.6%
c1ccc(CSC2CCCN3CC(c4ccccc4)N=C23)cc1 (stereo not drawn) [Example 14, 2,3,5,6,7,8-Hexahydro-2-phenyl-8-benzylthioimidazo[1,2-a]pyridine fumarate (1:1) salt] | -29.1%
CSC1CCCN2CC(c3ccccc3)N=C12 (stereo not drawn) [Example 10, 2,3,5,6,7,8-Hexahydro-2-phenyl-8-methylthioimidazo[1,2-a]pyridine hydrochloride] | -94.1%

Same assay, conditions: 10^-7 m

Compound | Percent Inhibition (-) or Enhancement (+) of migration
COc1ccc(CSC2CCN3CC(c4ccccc4)N=C23)cc1 (stereo not drawn) [Example 3, 2,5,6,7-Tetrahydro-2-phenyl-7-p-methoxybenzylthio-3H-pyrrolo[1,2-a]imidazole hydrochloride] | -64.5%
CSC1CCN2CC(c3ccccc3)N=C12 (stereo not drawn) [Example 1, 2,5,6,7-Tetrahydro-2-phenyl-7-methylthio-3H-pyrrolo[1,2-a]imidazole hydrochloride] | -8.8%
COc1ccc(CSC2CCCN3CC(c4ccccc4)N=C23)cc1 (stereo not drawn) [Example 15, 2,3,5,6,7,8-Hexahydro-2-phenyl-8-p-methoxybenzylthioimidazo[1,2-a]pyridinefumarate (1:1) salt] | +30.1%
c1ccc(CSC2CCCN3CC(c4ccccc4)N=C23)cc1 (stereo not drawn) [Example 14, 2,3,5,6,7,8-Hexahydro-2-phenyl-8-benzylthioimidazo[1,2-a]pyridine fumarate (1:1) salt] | -51.0%
CSC1CCCN2CC(c3ccccc3)N=C12 (stereo not drawn) [Example 10, 2,3,5,6,7,8-Hexahydro-2-phenyl-8-methylthioimidazo[1,2-a]pyridine hydrochloride] | -94.4%

Same assay, conditions: 10^-8 m

Compound | Percent Inhibition (-) or Enhancement (+) of migration
COc1ccc(CSC2CCN3CC(c4ccccc4)N=C23)cc1 (stereo not drawn) [Example 3, 2,5,6,7-Tetrahydro-2-phenyl-7-p-methoxybenzylthio-3H-pyrrolo[1,2-a]imidazole hydrochloride] | -43.0%
CSC1CCN2CC(c3ccccc3)N=C12 (stereo not drawn) [Example 1, 2,5,6,7-Tetrahydro-2-phenyl-7-methylthio-3H-pyrrolo[1,2-a]imidazole hydrochloride] | -17.5%
COc1ccc(CSC2CCCN3CC(c4ccccc4)N=C23)cc1 (stereo not drawn) [Example 15, 2,3,5,6,7,8-Hexahydro-2-phenyl-8-p-methoxybenzylthioimidazo[1,2-a]pyridinefumarate (1:1) salt] | +35.6%
c1ccc(CSC2CCCN3CC(c4ccccc4)N=C23)cc1 (stereo not drawn) [Example 14, 2,3,5,6,7,8-Hexahydro-2-phenyl-8-benzylthioimidazo[1,2-a]pyridine fumarate (1:1) salt] | -51.0%
CSC1CCCN2CC(c3ccccc3)N=C12 (stereo not drawn) [Example 10, 2,3,5,6,7,8-Hexahydro-2-phenyl-8-methylthioimidazo[1,2-a]pyridine hydrochloride] | -88.4%

Same assay, conditions: 10^-9 m

Compound | Percent Inhibition (-) or Enhancement (+) of migration
COc1ccc(CSC2CCN3CC(c4ccccc4)N=C23)cc1 (stereo not drawn) [Example 3, 2,5,6,7-Tetrahydro-2-phenyl-7-p-methoxybenzylthio-3H-pyrrolo[1,2-a]imidazole hydrochloride] | -29.2%
CSC1CCN2CC(c3ccccc3)N=C12 (stereo not drawn) [Example 1, 2,5,6,7-Tetrahydro-2-phenyl-7-methylthio-3H-pyrrolo[1,2-a]imidazole hydrochloride] | -29.7%
COc1ccc(CSC2CCCN3CC(c4ccccc4)N=C23)cc1 (stereo not drawn) [Example 15, 2,3,5,6,7,8-Hexahydro-2-phenyl-8-p-methoxybenzylthioimidazo[1,2-a]pyridinefumarate (1:1) salt] | +31.8%
c1ccc(CSC2CCCN3CC(c4ccccc4)N=C23)cc1 (stereo not drawn) [Example 14, 2,3,5,6,7,8-Hexahydro-2-phenyl-8-benzylthioimidazo[1,2-a]pyridine fumarate (1:1) salt] | -50.7%
CSC1CCCN2CC(c3ccccc3)N=C12 (stereo not drawn) [Example 10, 2,3,5,6,7,8-Hexahydro-2-phenyl-8-methylthioimidazo[1,2-a]pyridine hydrochloride] | -91.7%

Same assay, conditions: 10^-10 m

Compound | Percent Inhibition (-) or Enhancement (+) of migration
CSC1CCN2CC(c3ccccc3)N=C12 (stereo not drawn) [Example 1, 2,5,6,7-Tetrahydro-2-phenyl-7-methylthio-3H-pyrrolo[1,2-a]imidazole hydrochloride] | -68.2%
COc1ccc(CSC2CCCN3CC(c4ccccc4)N=C23)cc1 (stereo not drawn) [Example 15, 2,3,5,6,7,8-Hexahydro-2-phenyl-8-p-methoxybenzylthioimidazo[1,2-a]pyridinefumarate (1:1) salt] | +33.8%
c1ccc(CSC2CCCN3CC(c4ccccc4)N=C23)cc1 (stereo not drawn) [Example 14, 2,3,5,6,7,8-Hexahydro-2-phenyl-8-benzylthioimidazo[1,2-a]pyridine fumarate (1:1) salt] | -10.2%
CSC1CCCN2CC(c3ccccc3)N=C12 (stereo not drawn) [Example 10, 2,3,5,6,7,8-Hexahydro-2-phenyl-8-methylthioimidazo[1,2-a]pyridine hydrochloride] | -97.4%

Same assay, conditions: 10^-11 m

Compound | Percent Inhibition (-) or Enhancement (+) of migration [%]
CSC1CCN2CC(c3ccccc3)N=C12 (stereo not drawn) [Example 1, 2,5,6,7-Tetrahydro-2-phenyl-7-methylthio-3H-pyrrolo[1,2-a]imidazole hydrochloride] | -36.8
COc1ccc(CSC2CCCN3CC(c4ccccc4)N=C23)cc1 (stereo not drawn) [Example 15, 2,3,5,6,7,8-Hexahydro-2-phenyl-8-p-methoxybenzylthioimidazo[1,2-a]pyridinefumarate (1:1) salt] | -1.2
c1ccc(CSC2CCCN3CC(c4ccccc4)N=C23)cc1 (stereo not drawn) [Example 14, 2,3,5,6,7,8-Hexahydro-2-phenyl-8-benzylthioimidazo[1,2-a]pyridine fumarate (1:1) salt] | -44.5
CSC1CCCN2CC(c3ccccc3)N=C12 (stereo not drawn) [Example 10, 2,3,5,6,7,8-Hexahydro-2-phenyl-8-methylthioimidazo[1,2-a]pyridine hydrochloride] | -97.3

Same assay, conditions: Mus musculus, Macrophage; 10^-8 molar concentration; read-out: stimulates migration

Compound | activation at 0.01 µM [%]
COc1ccc(CSC2CCCN3CC(c4ccccc4)N=C23)cc1 (stereo not drawn) [Example 15, 2,3,5,6,7,8-Hexahydro-2-phenyl-8-p-methoxybenzylthioimidazo[1,2-a]pyridinefumarate (1:1) salt] | 35.6

Same assay, conditions: Mus musculus, Macrophage; 10^-10 molar concentration; read-out: inhibits migration

Compound | inhibition at 0.0001 µM [%]
CSC1CCN2CC(c3ccccc3)N=C12 (stereo not drawn) [Example 1, 2,5,6,7-Tetrahydro-2-phenyl-7-methylthio-3H-pyrrolo[1,2-a]imidazole hydrochloride] | 68.2

What follows are compounds tested on mouse hepatitis virus (assay: Antiviral assay - hepatitis in mice). Details: 6.25 mg/Kg i.p.; once daily for 3 days; day 4; 0 (normal) to 4 (extreme discoloration); control 2.6.
Format: in vivo
Method: Female mice weighing approximately 21-24 grams were inoculated with 0.1 ml of a mouse liver suspension containing mouse hepatitis virus, which liver suspension is at a dilution of 10^-5.5. Starting twenty-four hours post-virus inoculation, the animals were intraperitoneally ("i.p.") or orally administered the test compound(s) once daily for 3 days. On day 4, one third to one half of each group of mice were sacrificed and their liver removed for examination. Each liver was scored and assigned a number from 0 (normal liver) to 4 (extreme discoloration). The mean liver score per group was computed. The number of animals surviving until termination of the study (day 21) was also recorded. Anti-hepatitis activity is evidenced by increased survivor numbers and improved liver scores.

Compound | Mean Liver Score
CSC1(SC)CCCN2CC(c3ccccc3)N=C21 (stereo not drawn) [Example 16, 2,3,5,6,7,8-Hexahydro-2-phenyl-8,8-di(methylthio)imidazo[1,2-a]pyridine hydrochloride] | 1.5
c1ccc(SC2CCCN3CC(c4ccccc4)N=C23)cc1 (stereo not drawn) [Example 11, 2,3,5,6,7,8-Hexahydro-2-phenyl-8-phenylthioimidazo[1,2-a]pyridine sulfate (1:1) salt] | 2.0

Same assay, conditions: 6.25 mg/Kg i.p.; once daily for 3 days; day 21; control 5%

Compound | Percent Survival [%]
CSC1(SC)CCCN2CC(c3ccccc3)N=C21 (stereo not drawn) [Example 16, 2,3,5,6,7,8-Hexahydro-2-phenyl-8,8-di(methylthio)imidazo[1,2-a]pyridine hydrochloride] | 60
c1ccc(SC2CCCN3CC(c4ccccc4)N=C23)cc1 (stereo not drawn) [Example 11, 2,3,5,6,7,8-Hexahydro-2-phenyl-8-phenylthioimidazo[1,2-a]pyridine sulfate (1:1) salt] | 10

Same assay, conditions: 12.5 mg/Kg i.p.; once daily for 3 days; day 4; 0 (normal) to 4 (extreme discoloration); control 2.6 (Examples 11, 16, 23), 3.4 (25, 26)

Compound | Mean Liver Score
CSC1(SC)CCCN2CC(c3ccccc3)N=C21 (stereo not drawn) [Example 16, 2,3,5,6,7,8-Hexahydro-2-phenyl-8,8-di(methylthio)imidazo[1,2-a]pyridine hydrochloride] | 2.0
c1ccc(SC2CCCN3CC(c4ccccc4)N=C23)cc1 (stereo not drawn) [Example 11, 2,3,5,6,7,8-Hexahydro-2-phenyl-8-phenylthioimidazo[1,2-a]pyridine sulfate (1:1) salt] | 1.8
COC1(OC)CCCN2C1=NCC2c1ccccc1 (stereo not drawn) [Example 26, 2,3,5,6,7,8-Hexahydro-3-phenyl-8,8-dimethoxy imidazo[1,2-a]pyridine hydrochloride] | 2.7

Same assay, conditions: 12.5 mg/Kg i.p.; once daily for 3 days; day 21; control 5% (Examples 11, 16, 23), 6% (25, 26)

Compound | Percent Survival [%]
CSC1(SC)CCCN2CC(c3ccccc3)N=C21 (stereo not drawn) [Example 16, 2,3,5,6,7,8-Hexahydro-2-phenyl-8,8-di(methylthio)imidazo[1,2-a]pyridine hydrochloride] | 90
c1ccc(SC2CCCN3CC(c4ccccc4)N=C23)cc1 (stereo not drawn) [Example 11, 2,3,5,6,7,8-Hexahydro-2-phenyl-8-phenylthioimidazo[1,2-a]pyridine sulfate (1:1) salt] | 40
COC1(OC)CCCN2C1=NCC2c1ccccc1 (stereo not drawn) [Example 26, 2,3,5,6,7,8-Hexahydro-3-phenyl-8,8-dimethoxy imidazo[1,2-a]pyridine hydrochloride] | 0

Same assay, conditions: 25 mg/Kg i.p.; once daily for 3 days; day 4; 0 (normal) to 4 (extreme discoloration); control 2.6 (Examples 11, 23), 3.4 (25, 26)

Compound | Mean Liver Score
c1ccc(SC2CCCN3CC(c4ccccc4)N=C23)cc1 (stereo not drawn) [Example 11, 2,3,5,6,7,8-Hexahydro-2-phenyl-8-phenylthioimidazo[1,2-a]pyridine sulfate (1:1) salt] | 1.8
COC1(OC)CCCN2C1=NCC2c1ccccc1 (stereo not drawn) [Example 26, 2,3,5,6,7,8-Hexahydro-3-phenyl-8,8-dimethoxy imidazo[1,2-a]pyridine hydrochloride] | 2.3

Same assay, conditions: 25 mg/Kg i.p.; once daily for 3 days; day 21; control 5% (Examples 11, 23), 6% (25, 26)

Compound | Percent Survival [%]
c1ccc(SC2CCCN3CC(c4ccccc4)N=C23)cc1 (stereo not drawn) [Example 11, 2,3,5,6,7,8-Hexahydro-2-phenyl-8-phenylthioimidazo[1,2-a]pyridine sulfate (1:1) salt] | 40
COC1(OC)CCCN2C1=NCC2c1ccccc1 (stereo not drawn) [Example 26, 2,3,5,6,7,8-Hexahydro-3-phenyl-8,8-dimethoxy imidazo[1,2-a]pyridine hydrochloride] | 0

These compounds were tested on antibody secreting cells in the spleen (assay: Kennedy Plaque Assay (humoral immune system depressed by 6-mercaptopurine; number of plaques)). Details: ip; 60 mg/Kg of 6 MP plus 6.25 mg/Kg (i.p.) of compound; read-out: Percent Restoration (+) or Suppression (-).
Format: in vivo
Method: In this assay, in which the in vitro model used was the Kennedy modification of the Jerne (or plaque) technique (J. C. Kennedy et al, Immunol., 20, p. 253 (1971)), the animal's humoral immune system is depressed artificially by the known immunosuppressant drug, 6-mercaptopurine (6-MP), and then the ability of a drug to either suppress it further or restore it towards normal is evaluated. The change in the number of plaques, which is a direct correlate of the change in the number of antibody secreting cells in the spleen, is used to measure this effect. For example, the compound of Example 11 results in greater than 100% restoration of the number of plaques and thus causes an immunoenhancement of the humoral system. In contrast, the compound of Example 28 results in about 24% further suppression of the number of plaques and thus behaves as an immunosuppressant.
of 6 MP plus 6.25 mg/Kg (i.p.)
^1 without 6MP treatment
^2 percent change from control (i.e., without 6MP)

Compound | change in vivo at 6.25 mg/kg [%]
COc1ccc(CSC2CCN3CC(c4ccccc4)N=C23)cc1 (stereo not drawn) [Example 3, 2,5,6,7-Tetrahydro-2-phenyl-7-p-methoxybenzylthio-3H-pyrrolo[1,2-a]imidazole hydrochloride] | 108
CSC1(SC)CCCN2CC(c3ccccc3)N=C21 (stereo not drawn) [Example 16, 2,3,5,6,7,8-Hexahydro-2-phenyl-8,8-di(methylthio)imidazo[1,2-a]pyridine hydrochloride] | -25
CSC1CCN2CC(c3ccccc3)N=C12 (stereo not drawn) [Example 1, 2,5,6,7-Tetrahydro-2-phenyl-7-methylthio-3H-pyrrolo[1,2-a]imidazole hydrochloride] | 72
COc1ccc(CSC2CCCN3CC(c4ccccc4)N=C23)cc1 (stereo not drawn) [Example 15, 2,3,5,6,7,8-Hexahydro-2-phenyl-8-p-methoxybenzylthioimidazo[1,2-a]pyridinefumarate (1:1) salt] | 54
c1ccc(SC2CCCN3CC(c4ccccc4)N=C23)cc1 (stereo not drawn) [Example 11, 2,3,5,6,7,8-Hexahydro-2-phenyl-8-phenylthioimidazo[1,2-a]pyridine sulfate (1:1) salt] | 125
CSC1CCCN2CC(c3ccccc3)N=C12 (stereo not drawn) [Example 10, 2,3,5,6,7,8-Hexahydro-2-phenyl-8-methylthioimidazo[1,2-a]pyridine hydrochloride] | 55

Same assay, conditions: with 6-MP

Compound | restoration of the number of plaques
c1ccc(SC2CCCN3CC(c4ccccc4)N=C23)cc1 (stereo not drawn) [Example 11, 2,3,5,6,7,8-Hexahydro-2-phenyl-8-phenylthioimidazo[1,2-a]pyridine sulfate (1:1) salt] | greater than 100%
